Experiment: Dissolution test, rotating paddle method, DI water (Example 2)
Format: physicochemical
Details: 900 ml DI water, 50 rpm, 37° C., FIG. 4
Protocol: Dissolution Behavior: As part of this study, dissolution tests were performed on both pure IBU and impregnated IBU to check the effect of the impregnation process on the dissolution rate and extent of IBU. Dissolution was carried out in 900 ml of DI water at 50 rpm and 37° C. using the rotating paddle method. Samples were withdrawn at predetermined time intervals (every 3 minutes) for 60 min using a peristaltic pump attached to the dissolution device. The amount of released IBU was quantified spectrophotometrically.

Q: With `CC(C)Cc1ccc(C(C)C(=O)O)cc1` (stereo not shown) [pure crystal IBU, Ibuprofen] as the compound, how does the “IBU released within 5 minutes” value read?
A: less than 10%
